Drawing on US20260028354A1, “TETRAHYDRONAPHTHALENE DERIVATIVES AS ESTROGEN RECEPTOR DEGRADERS” (REGENT OF THE UNIVERSITY OF MICHIGAN, priority 2022, published 2026), this text covers DC50 for 17 compounds.

A short description of the assay: Western blot analysis for "B" compounds. In kind it is cell-based. As to conditions: read-out: Traditional Western Degradation Potency (DC50). On the procedure:
Western Blot Analysis. Western blot analysis was performed essentially as described previously. The cells treated with indicated compounds were lysed in Radioimmunoprecipitation Assay Protein Lysis and Extraction Buffer (25 mmol/I. Tris.HCl, pH 7.6, 150 mmol/L, NaCl, 1% Nonidet P-40, 1% sodium deoxycholate, and 0.1% sodium dodecyl sulfate) containing proteinase inhibitor cocktail (Roche Diagnostics, Mannheim, Germany). Equal amounts of total protein were electrophoresed through 10% SDS-polyacrylamide gels after determination of protein concentration by BCA assay (Fisher Scientific, Pittsburgh, PA), The separated protein bands were transferred onto PVDF membranes (GE Healthcare Life Sciences, Marlborough, MA) and blotted against different antibodies, as indicated. The blots were scanned, and the band intensities were quantified using GelQuant.NET software provided by biochemlabsolutions.com. The relative mean intensity of target proteins was expressed after normalization to the intensity of glyceraldehyde-3-phosphate dehydrogenase bands.
For orientation: In western blotting, separated proteins are transferred to a membrane and probed.

Molecules are shown by their SMILES.

Regarding `O=C1CCC(N2C(=O)c3cc4c(cc3C2=O)CN(C2CN(C(=O)C3CCN(c5ccc([C@@H]6c7ccc(O)cc7CC[C@@H]6c6ccccc6)cc5)CC3)C2)C4)C(=O)N1` (mixture of isomers) [Compound B9, 2-(2,6-dioxopiperidin-3-yl)-6-(1-(1-(4-((1R,2S)-6-hydroxy-2-phenyl-1,2,3,4-tetrahydronaphthalen-1-yl)phenyl)piperidine-4-carbonyl)azetidin-3-yl)-6,7-dihydropyrrolo[3,4-f]isoindole-1,3(2H,5H)-dione], the DC50 fell in the range of 10 to 100 nM.

With `O=C1CCC(N2C(=O)c3cc4c(cc3C2=O)CN(CC2CN(C(=O)C3CCN(c5ccc([C@@H]6c7ccc(O)cc7CC[C@@H]6c6ccccc6)cc5)CC3)C2)C4)C(=O)N1` (mixture of isomers) [Compound B10, 2-(2,6-dioxopiperidin-3-yl)-6-((1-(1-(4-((1R,2S)-6-hydroxy-2-phenyl-1,2,3,4-tetrahydronaphthalen-1-yl)phenyl)piperidine-4-carbonyl)azetidin-3-yl)methyl)-6,7-dihydropyrrolo[3,4-f]isoindole-1,3(2H,5H)-dione], the DC50 was in the range of 10 to 100 nM.

For `O=C1CCC(N2C(=O)c3cc4c(cc3C2=O)CN(CC(=O)N2CC3(CCN(c5ccc([C@@H]6c7ccc(O)cc7CC[C@@H]6c6ccc(F)cc6)cc5)CC3)C2)C4)C(=O)N1` (mixture of isomers) [Compound B11, 2-(2,6-dioxopiperidin-3-yl)-6-(2-(7-(4-((1R,2S)-2-(4-fluorophenyl)-6-hydroxy-1,2,3,4-tetrahydronaphthalen-1-yl)phenyl)-2,7-diazaspiro[3.5]nonan-2-yl)-2-oxoethyl)-6,7-dihydropyrrolo[3,4-f]isoindole-1,3(2H,5H)-dione], the DC50 is under 10 nM.

`O=C1CCC(N2C(=O)c3cc4c(cc3C2=O)CN(CC(=O)N2CCCC(Oc3ccc([C@@H]5c6ccc(O)cc6CC[C@@H]5c5ccccc5)cc3)C2)C4)C(=O)N1` (mixture of isomers) [Compound B13, 2-(2,6-dioxopiperidin-3-yl)-6-(2-(3-(4-((1R,2S)-6-hydroxy-2-phenyl-1,2,3,4-tetrahydronaphthalen-1-yl)phenoxy)piperidin-1-yl)-2-oxoethyl)-6,7-dihydropyrrolo[3,4-f]isoindole-1,3(2H,5H)-dione]: the DC50 is over 100 nM.

Take `O=C1CCC(N2C(=O)c3cc4c(cc3C2=O)CN(C2CC(C(=O)N3CCCC(Oc5ccc([C@@H]6c7ccc(O)cc7CC[C@@H]6c6ccccc6)cc5)C3)C2)C4)C(=O)N1` (mixture of isomers) [Compound B14, 2-(2,6-dioxopiperidin-3-yl)-6-(3-(3-(4-((1R,2S)-6-hydroxy-2-phenyl-1,2,3,4-tetrahydronaphthalen-1-yl)phenoxy)piperidine-1-carbonyl)cyclobutyl)-6,7-dihydropyrrolo[3,4-f]isoindole-1,3(2H,5H)-dione]: the half-maximal degradation concentration (DC50) is over 100 nM.

For `O=C1CCC(N2C(=O)c3cc4c(cc3C2=O)CN(C2CCC(C(=O)N3CCCC(Oc5ccc([C@@H]6c7ccc(O)cc7CC[C@@H]6c6ccccc6)cc5)C3)CC2)C4)C(=O)N1` (mixture of isomers) [Compound B15, 2-(2,6-dioxopiperidin-3-yl)-6-(4-(3-(4-((1R,2S)-6-hydroxy-2-phenyl-1,2,3,4-tetrahydronaphthalen-1-yl)phenoxy)piperidine-1-carbonyl)cyclohexyl)-6,7-dihydropyrrolo[3,4-f]isoindole-1,3(2H,5H)-dione], the 50% degradation concentration (DC50) fell in the range of 10 to 100 nM.

For `O=C1CCC(N2C(=O)c3cc4c(cc3C2=O)CN(C(=O)CN2CC3(CCN(c5ccc([C@@H]6c7ccc(O)cc7CC[C@@H]6c6ccccc6)cc5)CC3)C2)C4)C(=O)N1` (mixture of isomers) [Compound B17, 2-(2,6-dioxopiperidin-3-yl)-6-(2-(7-(4-((1R,2S)-6-hydroxy-2-phenyl-1,2,3,4-tetrahydronaphthalen-1-yl)phenyl)-2,7-diazaspiro[3.5]nonan-2-yl)acetyl)-6,7-dihydropyrrolo[3,4-f]isoindole-1,3(2H,5H)-dione], the DC50 is 10 to 100 nM.

Take `O=C1CCC(N2C(=O)c3cc4c(cc3C2=O)CN(C(=O)CN2CCC3(CC2)CCN(c2ccc([C@@H]5c6ccc(O)cc6CC[C@@H]5c5ccccc5)cc2)CC3)C4)C(=O)N1` (mixture of isomers) [Compound B18, 2-(2,6-dioxopiperidin-3-yl)-6-(2-(9-(4-((1R,2S)-6-hydroxy-2-phenyl-1,2,3,4-tetrahydronaphthalen-1-yl)phenyl)-3,9-diazaspiro[5.5]undecan-3-yl)acetyl)-6,7-dihydropyrrolo[3,4-f]isoindole-1,3(2H,5H)-dione]: the DC50 lay in the range of 10 to 100 nM.

As for `O=C1CCC(N2C(=O)c3cc4c(cc3C2=O)CN(C(=O)CN2CC3(CCN(c5ccc([C@@H]6c7ccc(O)cc7CC[C@@H]6c6ccc(F)cc6)cc5)CC3)C2)C4)C(=O)N1` (mixture of isomers) [Compound B19, 2-(2,6-dioxopiperidin-3-yl)-6-(2-(7-(4-((1R,2S)-2-(4-fluorophenyl)-6-hydroxy-1,2,3,4-tetrahydronaphthalen-1-yl)phenyl)-2,7-diazaspiro[3.5]nonan-2-yl)acetyl)-6,7-dihydropyrrolo[3,4-f]isoindole-1,3(2H,5H)-dione], the DC50 lay in the range of 10 to 100 nM.

Turning to `O=C1CCC(N2C(=O)c3cc4c(cc3C2=O)CN(CC(=O)N2CCC3(CC2)CCN(c2ccc([C@@H]5c6ccc(O)cc6CC[C@@H]5c5ccccc5)cc2)C3)C4)C(=O)N1` (mixture of isomers) [Compound B20, 2-(2,6-dioxopiperidin-3-yl)-6-(2-(2-(4-((1R,2S)-6-hydroxy-2-phenyl-1,2,3,4-tetrahydronaphthalen-1-yl)phenyl)-2,8-diazaspiro[4.5]decan-8-yl)-2-oxoethyl)-6,7-dihydropyrrolo[3,4-f]isoindole-1,3(2H,5H)-dione], the DC50 fell in the range of 10 to 100 nM.

With `O=C1CCC(N2C(=O)c3cc4c(cc3C2=O)CN(C(=O)CN2CCC3(CCN(c5ccc([C@@H]6c7ccc(O)cc7CC[C@@H]6c6ccccc6)cc5)CC3)C2)C4)C(=O)N1` (mixture of isomers) [Compound B21, 2-(2,6-dioxopiperidin-3-yl)-6-(2-(8-(4-((1R,2S)-6-hydroxy-2-phenyl-1,2,3,4-tetrahydronaphthalen-1-yl)phenyl)-2,8-diazaspiro[4.5]decan-2-yl)acetyl)-6,7-dihydropyrrolo[3,4-f]isoindole-1,3(2H,5H)-dione], the DC50 was over 100 nM.

As for `O=C1CCC(N2C(=O)c3cc4c(cc3C2=O)CN(C(=O)CN2CCC3(CC2)CCN(c2ccc([C@@H]5c6ccc(O)cc6CC[C@@H]5c5ccccc5)cc2)C3)C4)C(=O)N1` (mixture of isomers) [Compound B22, 2-(2,6-dioxopiperidin-3-yl)-6-(2-(2-(4-((1R,2S)-6-hydroxy-2-phenyl-1,2,3,4-tetrahydronaphthalen-1-yl)phenyl)-2,8-diazaspiro[4.5]decan-8-yl)acetyl)-6,7-dihydropyrrolo[3,4-f]isoindole-1,3(2H,5H)-dione], the DC50 was over 100 nM.

Take `C[C@@H]1CC2(CCN(c3ccc([C@@H]4c5ccc(O)cc5CC[C@@H]4c4ccc(F)cc4)cc3)CC2)CN1C(=O)CN1Cc2cc3c(cc2C1)C(=O)N(C1CCC(=O)NC1=O)C3=O` (mixture of isomers) [Compound B26, 2-(2,6-dioxopiperidin-3-yl)-6-(2-((R)-8-(4-((1R,2S)-2-(4-fluorophenyl)-6-hydroxy-1,2,3,4-tetrahydronaphthalen-1-yl)phenyl)-3-methyl-2,8-diazaspiro[4.5]decan-2-yl)-2-oxoethyl)-6,7-dihydropyrrolo[3,4-f]isoindole-1,3(2H,5H)-dione]: the DC50 was in the range of 10 to 100 nM.

On to `O=C1CCC(N2C(=O)c3cc4c(cc3C2=O)CN(C(=O)CN2CCC3(CC2)CN(c2ccc([C@@H]5c6ccc(O)cc6CC[C@@H]5c5ccccc5)cc2)C3)C4)C(=O)N1` (mixture of isomers) [Compound B29, 2-(2,6-dioxopiperidin-3-yl)-6-(2-(2-(4-((1R,2S)-6-hydroxy-2-phenyl-1,2,3,4-tetrahydronaphthalen-1-yl)phenyl)-2,7-diazaspiro[3.5]nonan-7-yl)acetyl)-6,7-dihydropyrrolo[3,4-f]isoindole-1,3(2H,5H)-dione], for which the DC50 was over 100 nM.

As for `O=C1CCC(N2C(=O)c3cc4c(cc3C2=O)CN(C(=O)CN2CCC3(CC2)CCN(c2ccc([C@@H]5c6ccc(O)cc6CC[C@@H]5c5ccc(F)cc5)cc2)C3)C4)C(=O)N1` (mixture of isomers) [Compound B31, 2-(2,6-dioxopiperidin-3-yl)-6-(2-(2-(4-((1R,2S)-2-(4-fluorophenyl)-6-hydroxy-1,2,3,4-tetrahydronaphthalen-1-yl)phenyl)-2,8-diazaspiro[4.5]decan-8-yl)acetyl)-6,7-dihydropyrrolo[3,4-f]isoindole-1,3(2H,5H)-dione], the DC50 is over 100 nM.

For `O=C1CCC(N2C(=O)c3cc4c(cc3C2=O)CN(C(=O)CN2CCC3(CC2)CCN(c2ccc([C@@H]5c6ccc(O)cc6CC[C@@H]5c5ccccc5)c(F)c2)C3)C4)C(=O)N1` (mixture of isomers) [Compound B32, 2-(2,6-dioxopiperidin-3-yl)-6-(2-(2-(3-fluoro-4-((1S,2S)-6-hydroxy-2-phenyl-1,2,3,4-tetrahydronaphthalen-1-yl)phenyl)-2,8-diazaspiro[4.5]decan-8-yl)acetyl)-6,7-dihydropyrrolo[3,4-f]isoindole-1,3(2H,5H)-dione], the DC50 was over 100 nM.

As to `O=C1CCC(N2C(=O)c3cc4c(cc3C2=O)CN(C(=O)CN2CCC3(CC2)CCN(c2ccc([C@@H]5c6ccc(O)cc6CC[C@@H]5c5ccccc5)cc2F)C3)C4)C(=O)N1` (mixture of isomers) [Compound B33, 2-(2,6-dioxopiperidin-3-yl)-6-(2-(2-(2-fluoro-4-((1R,2S)-6-hydroxy-2-phenyl-1,2,3,4-tetrahydronaphthalen-1-yl)phenyl)-2,8-diazaspiro[4.5]decan-8-yl)acetyl)-6,7-dihydropyrrolo[3,4-f]isoindole-1,3(2H,5H)-dione], the DC50 was over 100 nM.

For orientation: DC50 means the concentration at which degradation of the target reaches its halfway point.
